{
  "source": "patent US20230174575A1",
  "about": "(priority 2020, published 2023)",
  "key": {"[1]": {"experiment": "Cell toxicity against Vero cells by MTT assay", "conditions": "African green monkey", "quoted_text": "(§1) Cell toxicity was monitored by establishing the effect of lysozyme HCl against Vero cells (epithelial cells of monkey kidneys). The cells were seeded in 96-well plates at the concentration of 1×10^4 cells/well. 24 hours after seeding, the cells were treated with serial dilutions of lysozyme HCl or chloroquine (as control), in a final volume of 200 in triplicate. After 72 hours' incubation at 37° C. with 5% CO2, cell viability was measured by MTT assay (D'Alessandro, M. et al., Differential effects on angiogenesis of two antimalarial compounds, dihydroartemisinin and artemisone: Implications for embryotoxicity, Toxicology. 241 (2007) 66-74. Doi: 10.1016/j.tox.2007.08.084).\n(§2) The data were calculated as percentage cell viability using the formula:\n(§3) [(absorbance of sample−blank of cell-free sample)/mean absorbance of control of media]×100.\n(§4) The cytotoxicity of ovotransferrin and chloroquine (CQ) was measured by MTT assay, similarly to the method used for lysozyme HCl."}, "[2]": {"test_system": "Vero cells", "experiment": "Cell toxicity against Vero cells by MTT assay", "conditions": "MTT assay", "quoted_text": "as §1, §2, §3, §4"}, "[3]": {"test_system": "SARS-CoV-2", "experiment": "Virucidal activity, plaque test", "assay_type": "cell-based"}, "[4]": {"test_system": "SARS-CoV-2", "assay_type": "cell-based", "conditions": "for Percentage replication of SARS-CoV-2 (lysozyme only): no ovotransferrin"}, "[5]": {"test_system": "Micrococcus lysodeikticus cells", "experiment": "Enzyme activity, enzymatic turbidimetric method (FIP method)", "assay_type": "biochemical", "method": "• Flow rate: 1 ml/min Determination of assay value (enzymatic turbidimetric method using Micrococcus lysodeikticus cells): according to the FIP method (Pharmaceutical Enzyme, Ed 1997, 84, 375) and J Pharm Pharmacol. 2001; 53 (4); 549-54."}},
  "note": "Like-named read-outs stand apart in the source and are kept apart here.",
  "data": [
    {"molecule": "CCN(CC)CCCC(C)Nc1ccnc2cc(Cl)ccc12", "note": "(stereo not drawn) [CQ, chloroquine, reference compound]", "values": [
      {"measurement": "CC50 at 72 h", "setting": "[1]", "result": "95.3 ± 18", "unit": "µM"},
      {"measurement": "CC10", "setting": "[2]; unit not given", "result": "20.93±4.39"}
    ]},
    {"molecule": "Heat-treated lysozyme: lysozyme HCl heat-treated at 99° C. for 40 minutes", "values": [
      {"measurement": "mean PFU/ml (average of three experiments)", "setting": "[3]; 0.42 mg/ml", "result": 58.61, "unit": "PFU/ml"},
      {"measurement": "percentage (PFU relative to untreated infected cells)", "setting": "[3]; 0.42 mg/ml", "result": 57.2, "unit": "%"},
      {"measurement": "infectivity of SARS-CoV-2 reduced by", "setting": "[3]; 0.42 mg/ml, plaque assay", "result": 57.2, "unit": "%"},
      {"measurement": "mean PFU/ml (average of three experiments)", "setting": "[3]; 0.56 mg/ml", "result": 60.41, "unit": "PFU/ml"},
      {"measurement": "percentage (PFU relative to untreated infected cells)", "setting": "[3]; 0.56 mg/ml", "result": 58.9, "unit": "%"},
      {"measurement": "infectivity of SARS-CoV-2 reduced by", "setting": "[3]; 0.56 mg/ml, plaque assay", "result": 58.9, "unit": "%"},
      {"measurement": "mean PFU/ml (average of three experiments)", "setting": "[3]; 1 mg/ml", "result": 71.32, "unit": "PFU/ml"},
      {"measurement": "percentage (PFU relative to untreated infected cells)", "setting": "[3]; 1 mg/ml", "result": "(69.6%)"},
      {"measurement": "infectivity of SARS-CoV-2 reduced by", "setting": "[3]; 1 mg/ml, plaque assay", "result": 69.6, "unit": "%"}
    ]},
    {"molecule": "lysozyme hydrochloride [Lysozyme HCl]", "values": [
      {"measurement": "antiviral activity against SARS-CoV-2 infection in the in vitro test", "setting": "[4]", "result": "high antiviral activity"},
      {"measurement": "percentage viral replication", "setting": "[4]", "result": "very low, and close to zero"},
      {"measurement": "% viral replication (average of 9 replications)", "setting": "[4]; Dry heat treatment (74° C. for 60 min), 0.33 mg/mL", "result": 83.24, "unit": "%"},
      {"measurement": "% viral replication (average of 9 replications)", "setting": "[4]; Dry heat treatment (74° C. for 60 min), 0.5 mg/mL", "result": 42.05, "unit": "%"},
      {"measurement": "% viral replication (average of 9 replications)", "setting": "[4]; Dry heat treatment (74° C. for 60 min), 0.75 mg/mL", "result": 11.31, "unit": "%"},
      {"measurement": "% viral replication (average of 9 replications)", "setting": "[4]; Dry heat treatment (99° C. for 40 min), 0.33 mg/mL", "result": 60.32, "unit": "%"},
      {"measurement": "% viral replication (average of 9 replications)", "setting": "[4]; Dry heat treatment (99° C. for 40 min), 0.5 mg/mL", "result": 35.56, "unit": "%"},
      {"measurement": "% viral replication (average of 9 replications)", "setting": "[4]; Dry heat treatment (99° C. for 40 min), 0.75 mg/mL", "result": 16.58, "unit": "%"},
      {"measurement": "% viral replication (average of 9 replications)", "setting": "[4]; Heat treatment in aqueous solution, 90° C. for 3 minutes, 0.33 mg/mL", "result": 87.85, "unit": "%"},
      {"measurement": "% viral replication (average of 9 replications)", "setting": "[4]; Heat treatment in aqueous solution, 90° C. for 3 minutes, 0.5 mg/mL", "result": 67.97, "unit": "%"},
      {"measurement": "% viral replication (average of 9 replications)", "setting": "[4]; Heat treatment in aqueous solution, 90° C. for 3 minutes, 0.75 mg/mL", "result": 15.55, "unit": "%"},
      {"measurement": "% viral replication (average of 9 replications)", "setting": "[4]; Heat treatment in aqueous solution, 90° C. for 6 minutes, 0.33 mg/mL", "result": 87.96, "unit": "%"},
      {"measurement": "% viral replication (average of 9 replications)", "setting": "[4]; Heat treatment in aqueous solution, 90° C. for 6 minutes, 0.5 mg/mL", "result": 51.62, "unit": "%"},
      {"measurement": "% viral replication (average of 9 replications)", "setting": "[4]; Heat treatment in aqueous solution, 90° C. for 6 minutes, 0.75 mg/mL", "result": 9.88, "unit": "%"},
      {"measurement": "% viral replication (average of 9 replications)", "setting": "[4]; Heat treatment in aqueous solution, 90° C. for 20 minutes, 0.33 mg/mL", "result": 78.00, "unit": "%"},
      {"measurement": "% viral replication (average of 9 replications)", "setting": "[4]; Heat treatment in aqueous solution, 90° C. for 20 minutes, 0.5 mg/mL", "result": 36.10, "unit": "%"},
      {"measurement": "% viral replication (average of 9 replications)", "setting": "[4]; Heat treatment in aqueous solution, 90° C. for 20 minutes, 0.75 mg/mL", "result": 18.30, "unit": "%"},
      {"measurement": "% viral replication (average of 9 replications)", "setting": "[4]; Heat treatment in aqueous solution, 90° C. for 25 minutes, 0.33 mg/mL", "result": 42.06, "unit": "%"},
      {"measurement": "% viral replication (average of 9 replications)", "setting": "[4]; Heat treatment in aqueous solution, 90° C. for 25 minutes, 0.5 mg/mL", "result": 24.61, "unit": "%"},
      {"measurement": "% viral replication (average of 9 replications)", "setting": "[4]; Heat treatment in aqueous solution, 90° C. for 25 minutes, 0.75 mg/mL", "result": 2.62, "unit": "%"},
      {"measurement": "% viral replication (average of 9 replications)", "setting": "[4]; No heat treatment, 0.33 mg/mL", "result": 79.72, "unit": "%"},
      {"measurement": "% viral replication (average of 9 replications)", "setting": "[4]; No heat treatment, 0.5 mg/mL", "result": 58.13, "unit": "%"},
      {"measurement": "% viral replication (average of 9 replications)", "setting": "[4]; No heat treatment, 0.75 mg/mL", "result": 25.51, "unit": "%"},
      {"measurement": "Percentage replication of SARS-CoV-2 (lysozyme only)", "setting": "[4]; lysozyme HCl 0.32 mg/ml", "result": 93, "unit": "%"},
      {"measurement": "Percentage replication of SARS-CoV-2 (lysozyme only)", "setting": "[4]; lysozyme HCl 0.42 mg/ml", "result": 89, "unit": "%"},
      {"measurement": "Percentage replication of SARS-CoV-2 (lysozyme only)", "setting": "[4]; lysozyme HCl 0.56 mg/ml", "result": 93, "unit": "%"},
      {"measurement": "viral replication inhibited by", "setting": "[4]; lysozyme HCl 0.75 mg/ml, in the absence of ovotransferrin", "result": "about 62%"},
      {"measurement": "Percentage replication of SARS-CoV-2 (lysozyme only)", "setting": "[4]; lysozyme HCl 0.75 mg/ml", "result": 62, "unit": "%"},
      {"measurement": "mean PFU/ml (average of three experiments)", "setting": "[3]; 0.42 mg/ml", "result": 70, "unit": "PFU/ml"},
      {"measurement": "percentage (PFU relative to untreated infected cells)", "setting": "[3]; 0.42 mg/ml", "result": 83.9, "unit": "%"},
      {"measurement": "mean PFU/ml (average of three experiments)", "setting": "[3]; 0.56 mg/ml", "result": 61.65, "unit": "PFU/ml"},
      {"measurement": "percentage (PFU relative to untreated infected cells)", "setting": "[3]; 0.56 mg/ml", "result": 84.1, "unit": "%"},
      {"measurement": "mean PFU/ml (average of three experiments)", "setting": "[3]; 1 mg/ml", "result": 75, "unit": "PFU/ml"},
      {"measurement": "percentage (PFU relative to untreated infected cells)", "setting": "[3]; 1 mg/ml", "result": "(<100%)"},
      {"measurement": "reduction of infectivity of SARS-CoV-2", "setting": "[3]; any of the doses used (0.42, 0.56, 1 mg/ml), plaque assay", "result": "did not reduce the infectivity"},
      {"measurement": "Enzyme activity (turbidimetric method)", "setting": "[5]; No heat treatment", "result": 98.7},
      {"measurement": "Enzyme activity (turbidimetric method)", "setting": "[5]; after dry heat treatment (74° C. for 60 min)", "result": 98.8},
      {"measurement": "Enzyme activity (turbidimetric method)", "setting": "[5]; after dry heat treatment (99° C. for 40 min)", "result": 98.1},
      {"measurement": "Enzyme activity (turbidimetric method)", "setting": "[5]; after heat treatment in aqueous solution, 90° C. for 3 minutes", "result": 97.3},
      {"measurement": "Enzyme activity (turbidimetric method)", "setting": "[5]; after heat treatment in aqueous solution, 90° C. for 6 minutes", "result": 97.4},
      {"measurement": "Enzyme activity (turbidimetric method)", "setting": "[5]; after heat treatment in aqueous solution, 90° C. for 20 minutes", "result": 92.1},
      {"measurement": "Enzyme activity (turbidimetric method)", "setting": "[5]; after heat treatment in aqueous solution, 90° C. for 25 minutes", "result": 88.8},
      {"measurement": "CC50 for Vero cells", "setting": "[2]; 72 hours", "result": 13.3, "unit": "mg/mL"}
    ]}
  ]
}
